pIC50: −log10 of the molar value.

For the first assay, the system named is cebus apella. In words: Testing drug efficacy in Cebus apella (uric acid excretion rate). The settings on record: 3 mg/kg to 30 mg/kg in 0.5% methylcellulose, from the nasal cavity to the stomach. It is filed as in vivo. The protocol: Testing Drug Efficacy in Cebus Apella A test compound (3 mg/kg to 30 mg/kg) dispersed in a 0.5% methylcellulose solution was administered to cebus apella from the nasal cavity to the stomach using a disposable catheter and a syringe barrel. Blood samples were taken before administration and 30 minutes, 1 hour, 2 hours, 4 hours, 8 hours, 12 hours, and 24 hours after administration; and urine samples were collected for the time intervals of from immediately after to 4 hours after administration, from 4 hours to 8 hours after administration, from 8 hours to 16 hours after administration, and from 16 hours to 24 hours after administration. Concentrations of uric acid and creatinine in the blood and urine samples collected were measured by an automatic analyzer (JEOL Ltd.). Uric acid and creatinine were measured respectively using L-type Wako UA•F (Wako Pure Chemicals Industries, Ltd.) and L-type Creatinine F (Wako Pure Chemicals Industries, Ltd.). Uric acid clearance was calculated from the uric acid concentrations in blood and urine and, similarly, creatinine clearance was calculated from the creatinine concentrations. Based on these values, the uric acid excretion rate was determined according to the following equation: Uric acid excretion rate (%)=(uric acid clearance/creatinine clearance)×100
As for `Cc1nc(-c2cnccn2)n(Cc2cc(Cl)sc2Cl)c1C(=O)O` [Compound A11, 1-((2,5-dichlorothiophene-3-yl)methyl)-4-methyl-2-(pyrazin-2-yl)-1H-imidazole-5-carboxylic acid], the “activity to promote uric acid excretion” value is recorded as “excellent activity”.

In a further assay the target is T1, human URAT1 (Homo sapiens, UniProt Q96S37).
T1 construct: Full-length cDNA of human URAT1 (hURAT1); host or cells: HEK 293 cells, stably transfected and selected by Geneticin resistance
T1 sequence (Q96S37 1-553): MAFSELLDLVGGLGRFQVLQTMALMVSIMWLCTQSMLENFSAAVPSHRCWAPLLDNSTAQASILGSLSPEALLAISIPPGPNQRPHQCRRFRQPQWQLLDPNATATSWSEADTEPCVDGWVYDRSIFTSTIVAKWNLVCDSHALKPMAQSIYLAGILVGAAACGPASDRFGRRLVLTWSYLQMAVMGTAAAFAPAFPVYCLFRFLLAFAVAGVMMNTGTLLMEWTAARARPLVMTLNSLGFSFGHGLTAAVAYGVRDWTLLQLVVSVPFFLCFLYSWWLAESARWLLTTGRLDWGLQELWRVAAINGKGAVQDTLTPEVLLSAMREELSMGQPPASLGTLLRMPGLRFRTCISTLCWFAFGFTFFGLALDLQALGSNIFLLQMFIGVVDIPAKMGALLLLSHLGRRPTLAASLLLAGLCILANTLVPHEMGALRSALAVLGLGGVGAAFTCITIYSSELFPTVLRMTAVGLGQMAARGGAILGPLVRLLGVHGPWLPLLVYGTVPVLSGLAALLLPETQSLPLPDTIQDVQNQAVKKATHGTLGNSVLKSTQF
Nature of the assay: Test for inhibition of uric acid transport using human URAT1-expressing cells. The settings on record: HEK 293 cells expressing human URAT1; 14C-labeled uric acid 25 μM; uptake 37° C. for 5 min; read-out: Inhibitory activity (IC50, concentration at which the uric acid transport rate is inhibited by 50%). It counts as cell-based. The method, then: Test for Inhibition of Uric Acid Transport Using Human URAT1-Expressing Cells
A test compound was dissolved in DMSO (produced by Sigma) to a concentration of 20 mM and was subsequently used by adjusting the concentration to a desired value for use.
Full-length cDNA of human URAT1 (hURAT1) (produced by OriGene Technologies, Inc., NCBI Reference Sequence: NM-144585) was subcloned into an expression vector, pCMV6-Kan/Neo (produced by OriGene Technologies, Inc.), and human URAT1 genes were transfected into human embryonic kidney-derived cells (HEK 293 cells) by a liposome method using Lipofectamine 2000 (produced by Invitrogen Corporation), whereupon HEK 293 cells expressing human URAT1 genes were selected on the basis of Geneticin resistance. Functional expression of human URAT1 genes was confirmed by using transport of ^14C-labeled uric acid into the cells as an index.
The HEK 293 cells expressing human URAT1 were seeded in a 24-well cell culture dish to a density of 3×10^5 cells/mL/well and were cultured in Dulbecco's modified Eagle's medium (D-MEM medium) containing 10% fetal bovine serum at 37° C. for 2 days. Thereafter, the following test for inhibition of uric acid transport was performed.
After the medium was removed by aspiration from each well, the cells were replaced with a solution obtained by substituting NaCl in Hanks' Balanced Salt Solution (HBSS) with Na gluconate (hereinafter, HBSS/Na-gluconate), and the cells were preincubated at 37° C. for about 10 minutes. After removing the HBSS/Na-gluconate by aspiration, a ^14C-uric acid solution containing various concentrations of the Example compound listed in Table 4 and a radioactive ligand (^14C-labeled uric acid; final concentration 25 μM) was added, and an uptake reaction was carried out by incubating at 37° C. for 5 min. After the reaction, the ^14C-labeled uric acid was removed by aspiration and the cells were washed three times with ice-cooled HBSS. The HEK 293 cells expressing human URAT1 were lysed in a 0.2 mol/L aqueous NaOH solution (hereafter, the cell sample) and sampled from the well. The cell sample and a liquid scintillation cocktail, ULTIMA GOLD (produced by PerkinElmer, Inc.) were mixed, and the radioactivity was measured by a liquid scintillation counter (manufactured by Beckman Coulter, Inc.).
The uric acid transport rate of the Example compound at each concentration (% of control uptake) was calculated relative to the radioactivity (radioactivity in human URAT1 expressing HEK 293 cells without addition of the Example compound (DMSO addition)) showing URAT1-specific uric acid transport as 100%, and the concentration (IC50) of the Example compound at which the uric acid transport rate is inhibited by 50% was determined. In addition, the symbols (*, **, and ***) in the table represent the following inhibitory activity values: • IC50≦0.2 μM: *** • 0.2 μM<IC50≦2 μM: ** • 2 μM<IC50≦20 μM: *
In the case of `Cc1nc(-c2cncc(C3CC3)n2)n(Cc2cc(Cl)ccc2Cl)c1C(=O)O` [Compound A10, 2-(6-cyclopropylpyrazin-2-yl)-1-(2,5-dichlorobenzyl)-4-methyl-1H-imidazole-5-carboxylic acid], the pIC50 is not below 6.70.

On to `Cc1nc(-c2cnccn2)n(Cc2cc(Cl)sc2Cl)c1C(=O)O` [Compound A11, 1-((2,5-dichlorothiophene-3-yl)methyl)-4-methyl-2-(pyrazin-2-yl)-1H-imidazole-5-carboxylic acid], for which the pIC50 is not below 6.70.

For the molecule `COc1cccc(F)c1Oc1cncc(-c2nc(C)c(C(=O)O)n2Cc2cc(Cl)ccc2Cl)n1` [Compound A13], the pIC50 is 5.70 to 6.70.

In the case of `Cc1cncc(-c2nc(C)c(C(=O)O)n2Cc2cc(Cl)ccc2Cl)n1` [Compound A2, 1-(2,5-dichlorobenzyl)-4-methyl-2-(6-methylpyrazin-2-yl)-1H-imidazole-5-carboxylic acid], the pIC50 was not below 6.70.

For the molecule `Cc1nc(-c2cncc(C#N)n2)n(Cc2cc(Cl)ccc2Cl)c1C(=O)O` [Compound A8, 2-(6-cyanopyrazin-2-yl)-1-(2,5-dichlorobenzyl)-4-methyl-1H-imidazole-5-carboxylic acid], the pIC50 is not below 6.70.

Take `Cc1nc(-c2cncc(C(C)C)n2)n(Cc2cc(Cl)ccc2Cl)c1C(=O)O` [Compound A9, 1-(2,5-dichlorobenzyl)-2-(6-isopropylpyrazin-2-yl)-4-methyl-1H-imidazole-5-carboxylic acid]: the pIC50 is not below 6.70.

On to `CCOc1cncc(-c2nc(C)c(C(=O)O)n2Cc2cc(Cl)ccc2Cl)n1` [Compound A7, 1-(2,5-dichlorobenzyl)-2-(6-ethoxypyrazin-2-yl)-4-methyl-1H-imidazole-5-carboxylic acid], for which the pIC50 was not below 6.70.

Turning to `COc1cccc(F)c1Oc1cncc(-c2nc(C)c(C(=O)O)n2Cc2ccccc2)n1` [Compound A14, 1-benzyl-2-(6-(2-fluoro-6-methoxyphenoxy)pyrazin-2-yl)-4-methyl-1H-imidazole-5-carboxylic acid], the pIC50 is not below 6.70.

As to `Cc1nc(-c2cncc(-c3ccccc3)n2)n(Cc2cc(Cl)ccc2Cl)c1C(=O)O` [Compound A4, 1-(2,5-dichlorobenzyl)-4-methyl-2-(6-phenylpyrazin-2-yl)-1H-imidazole-5-carboxylic acid], the pIC50 is not below 6.70.

As for `Cc1nc(-c2cncc(Oc3ccccc3)n2)n(Cc2cc(Cl)ccc2Cl)c1C(=O)O` [Compound A6, 1-(2,5-dichlorobenzyl)-4-methyl-2-(6-phenoxypyrazin-2-yl)-1H-imidazole-5-carboxylic acid], the pIC50 was not below 6.70.

Take `O=C(O)c1ccc(-c2cnccn2)n1Cc1cc(Cl)ccc1Cl` [Compound A15, 1-(2,5-dichlorobenzyl)-2-(pyrazin-2-yl)-1H-pyrrole-5-carboxylic acid]: the pIC50 is not below 6.70.

Regarding `Cc1cncc(-c2nc(C)c(C(=O)O)n2Cc2cc(Cl)sc2Cl)n1` [Compound A12, 1-((2,5-dichlorothiophene-3-yl)methyl)-4-methyl-2-(6-methylpyrazin-2-yl)-1H-imidazole-5-carboxylic acid], the pIC50 was not below 6.70.

Turning to `Cc1nc(-c2cnccn2)n(Cc2cc(Cl)ccc2Cl)c1C(=O)O` [Compound A1, 1-(2,5-dichlorobenzyl)-4-methyl-2-(pyrazin-2-yl)-1H-imidazole-5-carboxylic acid], the pIC50 was not below 6.70.

Take `COc1cncc(-c2nc(C)c(C(=O)O)n2Cc2cc(Cl)ccc2Cl)n1` [Compound A5, 1-(2,5-dichlorobenzyl)-2-(6-methoxypyrazin-2-yl)-4-methyl-1H-imidazole-5-carboxylic acid]: the pIC50 is not below 6.70.

Consider `CCc1cncc(-c2nc(C)c(C(=O)O)n2Cc2cc(Cl)ccc2Cl)n1` [Compound A3, 1-(2,5-dichlorobenzyl)-2-(6-ethylpyrazin-2-yl)-4-methyl-1H-imidazole-5-carboxylic acid], for which the pIC50 was not below 6.70.

These data come from patent publication US9856237B2, “Pyrazine derivatives” (TEIJIN PHARMA LIMITED, priority 2014, dated 2018).
